Measured values: patent publication US8268842B2, “Fused ring 4-oxopyrimidine derivative” (MSD K.K., priority 2004, dated 2012)
Read-outs that look alike come from different tables or passages of the source.

Columns and labels:
[1] = Kinetic test (plasma concentration after oral or intravenous administration); format: in vivo; conditions: rat, SD type male rats, fasted overnight
Description: The test compound (the compound of Example 1) was administered orally or intravenously to SD type male rats (7-10 weeks old, 200-400 g) which had abstained from food overnight, and about 100 μL of blood was collected from a caudal vein using a heparinized capillary tube at a predetermined time. The blood was centrifuged (4° C., 6000 rpm, 10 minutes), and plasma was obtained. Three times the amount of ethanol (containing an internal reference) was added to the plasma, stirred, left for 20 minutes at −20° C., and centrifuged (4° C., 10,000 rpm, 10 minutes). The supernatant liquid was analyzed by LC/MS/MS, and the plasma concentration was measured by the relative calibration curve method.

[2] = Brain/cerebrospinal fluid activity test; format: in vivo, rat; conditions: SD type male rats, 2 hours after oral administration (10 mg/kg); for concentration at 2 h: rat
Description: The test compound (the compound of Example 1) was administered orally or intravenously to SD type male rats (7-10 weeks old, 200-400 g), and exsanguination was performed from the abdominal aorta under ether anesthesia using a heparin treatment syringe at a predetermined time. The skin at the back of the head was cut open, pierced with a 30G dental needle between the cervical vertebrae, and inserted into the subarachnoid space. 50-100 μL of cerebrospinal fluid was extracted by a 1 mL syringe via a tube connected to the 30G needle, and the brain was extracted. A blood sample was centrifuged (4° C., 6000 rpm, 10 minutes), and three times the amount of ethanol (containing an internal reference) was added to the plasma and stirred. 2 mL of water was added to a brain sample, homogenized, a part was removed, and three times the amount of ethanol (containing an internal reference) was added and stirred. The cerebrospinal fluid was taken, three times the amount of ethanol (containing an internal reference) was added, and stirred. The above sample was left at −20° C. for 20 minutes, centrifuged (4° C., 12,000 g, 10 minutes), the supernatant liquid was analyzed by LC/MS/MS, and the concentration in plasma, brain and cerebrospinal fluid was measured by the relative calibration curve method.

histamine H3 receptor = biological target: T1, histamine H3 receptor (Rattus norvegicus, UniProt Q9QYN8); test: Antagonism test of drinking behavior induced by R-α-methylhistamine, a histamine H3 receptor selective agonist; format: in vivo; conditions: male SD rat, 10 mg/kg oral 2 hours before R-α-methylhistamine, measured 1 hour after
T1 construct: from tissue; host or cells: living male SD rat (brain, third ventricle agonist administration)
T1 sequence (Q9QYN8 whole entry): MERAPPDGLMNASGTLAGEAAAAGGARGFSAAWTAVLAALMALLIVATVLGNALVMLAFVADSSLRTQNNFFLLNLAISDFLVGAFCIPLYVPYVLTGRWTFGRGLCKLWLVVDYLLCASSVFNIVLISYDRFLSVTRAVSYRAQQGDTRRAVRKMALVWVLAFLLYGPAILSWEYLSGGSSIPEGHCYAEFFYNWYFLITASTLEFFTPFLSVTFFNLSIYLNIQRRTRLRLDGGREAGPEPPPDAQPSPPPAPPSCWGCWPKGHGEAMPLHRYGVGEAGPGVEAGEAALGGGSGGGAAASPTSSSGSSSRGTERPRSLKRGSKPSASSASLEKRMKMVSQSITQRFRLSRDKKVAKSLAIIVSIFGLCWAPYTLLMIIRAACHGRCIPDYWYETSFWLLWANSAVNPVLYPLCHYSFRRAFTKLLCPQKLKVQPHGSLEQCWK
Description: Under ketamine/xylazine anaesthesia (74 mg/kg and 11 mg/kg intraperitoneal single-dose administration), a chronic guide cannula (26 gauge, length 11 mm) was inserted in the ventriculus tertius of a male SD rat (7-10 weeks old, 200-300 g) using a brain stereotaxis apparatus, and fixed by dental resin. The position of the tip of the guide cannula was 2.2 mm back from the bregma, and at a depth of 8 mm from the skull surface on the median line. After about 1 week convalescence, R-α-methylhistamine (0.3 μg/1 μL/head, 30% propylene glycol solution) was administered to the ventriculus tertius. The test compound (the compound of Example 1) suspended in 0.5% methylcellulose aqueous solution was administered orally 2 hours before the R-α-methylhistamine administration, and the drinking water amount was measured 1 hour after R-α-methylhistamine administration.

[3] = biological target: T2, human histamine H3 receptor (Homo sapiens, UniProt Q9Y5N1); test: Histamine analog coupling inhibition test; format: binding
T2 construct: expressed in transfected cells; host or cells: HEK293 and CHO-K1
T2 sequence (Q9Y5N1 whole entry): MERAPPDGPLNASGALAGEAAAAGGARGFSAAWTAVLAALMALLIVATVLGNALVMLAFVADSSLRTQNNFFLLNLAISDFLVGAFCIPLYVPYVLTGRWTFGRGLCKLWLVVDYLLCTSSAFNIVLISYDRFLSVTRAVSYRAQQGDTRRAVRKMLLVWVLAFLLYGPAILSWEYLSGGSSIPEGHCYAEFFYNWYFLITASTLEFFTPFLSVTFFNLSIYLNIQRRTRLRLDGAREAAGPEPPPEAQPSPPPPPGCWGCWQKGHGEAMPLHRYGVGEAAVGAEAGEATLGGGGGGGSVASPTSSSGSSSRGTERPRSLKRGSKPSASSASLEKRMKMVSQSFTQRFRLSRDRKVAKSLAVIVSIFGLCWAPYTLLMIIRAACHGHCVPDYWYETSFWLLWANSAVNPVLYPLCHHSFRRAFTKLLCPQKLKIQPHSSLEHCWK
From the text: A cDNA sequence [International Patent Application WO00/3916 Specification No. 4] which encodes human histamine H3 receptor was cloned using the expression vectors pCR2.1, pEF1x (product of Invitrogen), and pCI-neo (product of Promega Inc.). The expression vector obtained was transfected to the host cells, HEK293 and CHO-K1 (American type culture collection), using the cationic lipid method [Proceedings of the National Academy of Sciences of the United States of America, Vol. 84, p. 7413 (1987), and histamine H3 receptor expression cells were thus obtained.
A film preparation made from the cells which represented the histamine H3 receptor, the test compound (the compound of Example 1) and 20,000 cpm of [3H]N-α-methylhistamine (product of NEN) were incubated in an assay buffer solution (50 mM Tris buffer solution, pH 7.4) at 25° C. for 2 hours, and filtered on a glass filter GF/C. After washing by 50 mM Tris buffer solution, pH7.4, the radioactivity on the glass filter was found. Non-specific linkages were measured in the presence of 10 microM thioperamide (product of SIGAM), and the 50% inhibition concentration (IC50 value) of the test compound with respect to specific N-α-methylhistamine linkages was found (Molecular Pharmacology, Vol. 55, p. 1101 (1999)).

melting point [°C]	Structure (SMILES)	further results
171 to 173	COc1ccc2nc(C)n(-c3ccc(OC4CCN(C5CCC5)CC4)cc3)c(=O)c2c1 [Example 228, 3-{4-[(1-cyclobutylpiperidin-4-yl)oxy]phenyl}-6-methoxy-2-methyl-4(3H)-quinazolinone]	
146 to 148	CCc1nc2ncccc2c(=O)n1-c1ccc(OC2CCN(C3CCC3)CC2)cc1 [Example 111, 3-{4-[(1-cyclobutyl-4-piperidinyl)oxy]phenyl}-2-ethylpyrido[2,3-d]pyrimidin-4(3H)-one]	
169 to 171	Cc1nc2cnccc2c(=O)n1-c1ccc(OC2CCN(C3CCC3)CC2)cc1 [Example 114, 3-{4-[(1-cyclobutyl-4-piperidinyl)oxy]phenyl}-2-methylpyrido[3,4-d]pyrimidin-4(3H)-one]	
136 to 138	COc1ccc2nc(C)n(-c3ccc(OCCCN4CCCCC4)cc3)c(=O)c2c1 [Example 36, 6-methoxy-2-methyl-3-{4-[3-(1-piperidinyl)propoxy]phenyl}-4(3H)-quinazolinone]	
125 to 127	Cc1nc2cccc(F)c2c(=O)n1-c1ccc(OCCCN2CCC[C@H]2C)cc1 [Example 260, 5-fluoro-2-methyl-3-(4-{3-[(2R)-2-methylpyrrolidin-1-yl]propoxy}phenyl)-4(3H)-quinazolinone]	
94 to 96	COc1ccc2c(=O)n(-c3ccc(OCCCN4CCC[C@H](C)C4)cc3)c(C)nc2c1 [Example 170, 7-methoxy-2-methyl-3-(4-{3-[(3S)-3-methyl-piperidin-1-yl]propoxy}phenyl)-4(3H)-quinazolinone]	
122 to 125	Cc1nc2ccc(F)cc2c(=O)n1-c1ccc(OC2CCN(C3CCC3)CC2)cc1 [Example 232, 3-{4-[(1-cyclobutylpiperidin-4-yl)oxy]phenyl}-6-fluoro-2-methyl-4(3H)-quinazolinone]	
255 to 262	Cc1nc2ncccc2c(=O)n1-c1ccc(OCCCN2CCC[C@H](C)C2)cc1.Cl	
145 to 147	COc1cc2c(=O)n(-c3ccc(OCCCN4CCCCC4)cc3)c(C)nc2cn1 [Example 199, 6-methoxy-2-methyl-3-[4-(3-piperidin-1-ylpropoxy)phenyl]pyrido[3,4-d]pyrimidin-4(3H)-one]	
163 to 166	Cc1nc2cc(F)ccc2c(=O)n1-c1ccc(OC2CCN(C3CCC3)CC2)cc1 [Example 233, 3-{4-[(1-cyclobutylpiperidin-4-yl)oxy]phenyl}-7-fluoro-2-methyl-4(3H)-quinazolinone]	
140 to 143	Cc1nc2ccncc2c(=O)n1-c1ccc(OC2CCN(C3CCCC3)CC2)cc1 [Example 101, 3-{4-[(1-cyclopentyl-4-piperidinyl)oxy]phenyl}-2-methylpyrido[4,3-d]pyrimidin-4(3H)-one]	
144 to 146	COc1cccc2nc(C)n(-c3ccc(OCCCN4CCC[C@H](C)C4)cc3)c(=O)c12 [Example 164, 5-methoxy-2-methyl-3-(4-{3-[(3S)-3-methylpiperidin-1-yl]propoxy}phenyl)-4(3H)-quinazolinone]	
161 to 163	Cc1nc2cnc(F)cc2c(=O)n1-c1ccc(OC2CCN(C3CCC3)CC2)cc1 [Example 230, 3-{4-[(1-cyclobutyl-piperidin-4-yl)oxy]phenyl}-6-fluoro-2-methylpyrido[3,4-d]pyrimidin-4(3H)-one]	
141 to 145	Cc1nc2cccc(F)c2c(=O)n1-c1ccc(OCCCN2CCCCC2)cc1 [Example 26, 5-fluoro-2-methyl-3-{4-[3-(1-piperidinyl)propoxy]phenyl}-4(3H)-quinazolinone]	
102 to 106	COc1ccc2nc(C)n(-c3ccc(OCCCN4CCC[C@@H]4C)cc3)c(=O)c2c1 [Example 144, 6-methoxy-2-methyl-3-(4-{3-[(2S)-2-methylpyrrolidin-1-yl]propoxy}phenyl)-4(3H)-quinazolinone]	
	CCc1nc2ccccc2c(=O)n1-c1ccc(OCCCN2CCCCC2)cc1 [Example 1, 2-ethyl-3-{4-[3-(1-piperidinyl)propoxy]phenyl}-4(3H)-quinazolinone]	bioavailability [1]: 60%; half-life ([1]; read-out: half-life in blood (converted)): 6.3 h; intracerebral concentration [2]: 3.16 nmol/g; concentration at 2 h ([2]; cerebrospinal fluid, read-out: cerebrospinal fluid concentration): 142 nM; concentration at 2 h ([2]; plasma, read-out: plasma concentration): 2320 nM; increase in drinking water amount due to R-α-methylhistamine administered to the ventriculus tertius (histamine H3 receptor): significantly suppressed; IC50 ([3]; [3H]N-α-methylhistamine, preparation from histamine H3 receptor expression cells, 50 mM Tris pH 7.4, 25° C., 2 hours, read-out: 50% inhibition concentration (IC50 value) with respect to specific N-α-methylhistamine linkages): 15 nM; binding of N-α-methylhistamine to the histamine H3 receptor ([3]; summary in words of the binding test): strongly prevented binding
238 to 250	Cc1nc2ccncc2c(=O)n1-c1ccc(OCCCN2CCC[C@H]2C)cc1 [Example 266, 2-methyl-3-(4-{3-[(2R)-2-methylpyrrolidin-1-yl]propoxy}phenyl)pyrido[4,3-d]pyrimidin-4(3H)-one]	
177 to 179	Cc1nc2c(F)cccc2c(=O)n1-c1ccc(OC2CCN(C3CCC3)CC2)cc1 [Example 242, 3-{4-[(1-cyclobutylpiperidin-4-yl)oxy]phenyl}-8-fluoro-2-methyl-4(3H)-quinazolinone]	
123 to 126	COc1cc2c(=O)n(-c3ccc(OCCCN4CCCC4)cc3)c(C)nc2cn1 [Example 200, 6-methoxy-2-methyl-3-[4-(3-pyrrolidin-1-ylpropoxy)phenyl]pyrido[3,4-d]-pyrimidin-4(3H)-one]	
106 to 108	COc1ccc2nc(C)n(-c3ccc(OCCCN4CCC[C@H]4C)cc3)c(=O)c2c1 [Example 172, 6-methoxy-2-methyl-3-(4-{3-[(2R)-2-methylpyrrolidin-1-yl]propoxy}phenyl)-4(3H)-quinazolinone]	
186 to 189	CCc1nc2ccncc2c(=O)n1-c1ccc(OC2CCN(C3CCC3)CC2)cc1 [Example 109, 3-{4-[(1-cyclobutyl-4-piperidinyl)oxy]phenyl}-2-ethylpyrido[4,3-d]pyrimidin-4(3H)-one]	
245 to 252	CCc1nc2ncccc2c(=O)n1-c1ccc(OCCCN2CCC[C@H](C)C2)cc1.Cl	
